Data set [1] can be described thus: Pharmacological Test 2: acute toxicity, tail vein administration, up-and-down method. The conditions noted are these: mouse, in vivo, iv, tail vein of ddY mice, in physiological saline solution. The protocol:
(§1) Nos. of the compounds in the pharmacological tests 1 and 2 correspond to those in Examples referred to hereinafter.
The acute toxicity was determined by administrating the sample compound, which was dissolved by physiological saline solution, in the tail vein of ddY mice (5-weeks-old, having a body weight of 25 to 28 g) and LD50 was obtained by the up-and-down method.

The subject of the next data set is right atria. Put plainly: Pharmacological Test 1: spontaneous contraction of isolated right atria (chronotropic effect). The conditions noted are these: Cavia porcellus; 3×10^-5 M; percentage of atrial rate after injection, rate before injection = 100%; 30° C. On the set-up: species or system male Hartley guinea pig. As to the method: as §1
(§2) A heart was removed from a male Hartley guinea pig (having a body weight of about 400 g or so) and a right atrium and papillary muscles of a right ventricle were separated from the removed heart. These preparations were suspended in 15 ml of Magnus' bath under load of 0.5 g (papillary muscles) or 1.0 g (right atria). Contraction of papillary muscles upon electric stimulation (1 Hz, 5 msec, 1.5×threshold voltage) and spontaneous contraction of the right atria were recorded through a transducer (manufactured by Orientec, T7-8-240) by a polygraph system (manufactured by NIHONKOHDEN, RMP-6008 and WT-685G).
(§3) Krebs-Henseleit solution was used as nutritive liquid bubbled with mixed gases of 95% O2 with 5% CO2 at 30° C. The value of inotropic effect is a percentage of increment of contractile force by samples when that by isoprotelenol (1×10^-8 M) is considered to be 100%. The value of chronotropic effect is a percentage of atrial rate after the injection of samples when the atrial rate before the injection is considered to be 100%.

Data set [2] concerns papillary muscles of a right ventricle. Nature of the data set: Pharmacological Test 1: contraction of isolated right ventricular papillary muscles upon electric stimulation (inotropic effect). On the set-up: species or system male Hartley guinea pig. The conditions noted are these: 3×10^-5 M; percentage of increment of contractile force, isoprotelenol (1×10^-8 M) = 100%; 1 Hz stimulation, 30° C. The protocol:
as §1, §2, §3

Where a name gives a salt, the structure may show the parent alone.

In the case of `O=C1CSC(C2=CCN(CC(O)c3cccc([N+](=O)[O-])c3)CC2)=NN1` (stereo not shown) [hydrochloride of compound 30, Hydrochloride of 2-[1-[2-hydroxy-2-(3-nitrophenyl)ethyl]-1,2,5,6-tetrahydropyrid-4-yl]-4H,6H-1,3,4-thiadiazin-5-one], the LD50 in data set [1] was found to be 160 mg/kg.
Still for that read-out and setting: then `O=C1CNC(C2=CCN(CC(O)c3ccc([N+](=O)[O-])cc3)CC2)=NN1` (stereo not shown) [hydrochloride of compound 60, Hydrochloride of 4,5-dihydro-3-[1-[2-hydroxy-2-(4-nitrophenyl)ethyl]-1,2,5,6-tetrahydropyrid-4-yl]-1,2,4-triazin-6(1H)-one], with 226 mg/kg; and `O=C1CSC(C2=CCN(CC(O)c3ccc(Cl)cc3)CC2)=NN1` (stereo not shown) [hydrochloride of compound 13, Hydrochloride of 2-[1-[2-(4-chlorophenyl)-2-hydroxyethyl]-1,2,5,6-tetrahydropyrid-4-yl]-4H,6H-1,3,4-thiadiazin-5-one], with 101 mg/kg.
Still for that read-out and setting: the value for `Cc1ccc(C(O)CN2CC=C(C3=NNC(=O)CS3)CC2)cc1` (stereo not shown) [hydrochloride of compound 21, Hydrochloride of 2-[1-[2-hydroxy-2-(4-methylphenyl)ethyl]-1,2,5,6-tetrahydropyrid-4-yl]-4H,6H-1,3,4-thiadiazin-5-one] was 226 mg/kg.
With `O=C1NN=C(C2=CCN(CC(O)c3ccccc3)CC2)CS1` (stereo not shown) [Compound 40, 5-[1-(2-Hydroxy-2-phenylethyl)-1,2,5,6-tetrahydropyrid-4-yl]-3H,6H-1,3,4-thiadiazin-2-one], in the data set on right atria, the activity at 30 µM is 98.1%. Also, the “Inotropic Effect” value in data set [2] was found to be 35.3%.
For the compound `O=C1CSC(c2ccncc2)=NN1` [a, 2-(4-Pyridyl)-4H,6H-1,3,4-thiadiazin-5-one, reference compound], the activity at 30 µM in the data set with right atria came to 159%. Further, the “Inotropic Effect” value in data set [2] was determined as 22.2%.
On the same counts, the results for `O=C1CCC(C2=CCN(CC(O)c3ccc([N+](=O)[O-])cc3)CC2)=NN1` (stereo not shown) [Compound 53, 4,5-Dihydro-6-[1-[2-hydroxy-2-(4-nitrophenyl)ethyl]-1,2,5,6-tetrahydropyrid-4-yl]pyridazin-3 (2H)-one] are 87.8% and 102.9%.
In data set [1], `O=C1CSC(C2=CCN(CC(O)c3ccc(F)cc3)CC2)=NN1` (stereo not shown) [hydrochloride of compound 35, Hydrochloride of 2-[1-[2-(4-fluorophenyl)-2-hydroxyethyl]-1,2,5,6-tetrahydropyrid-4-yl]-4H,6H-1,3,4-thiadiazin-5-one] registered an LD50 of 226 mg/kg.
In the case of `O=C1CSC(C2=CCN(CC(O)c3cccc(Cl)c3)CC2)=NN1` (stereo not shown) [Compound 12, 2-[1-[2-(3-Chlorophenyl)-2-hydroxyethyl]-1,2,5,6-tetrahydropyrid-4-yl]-4H,6H-1,3,4-thiadiazin-5-one], the activity at 30 µM with right atria came to 93.8%. The “Inotropic Effect” value in data set [2] came to 51.0%.
Consider `O=C1CSC(C2=CCN(CC(O)c3ccc(F)cc3)CC2)=NN1` (stereo not shown) [Compound 35, 2-[1-[2-(4-Fluorophenyl)-2-hydroxyethyl]-1,2,5,6-tetrahydropyrid-4-yl]-4H,6H-1,3,4-thiadiazin-5-one], for which, in the data set with right atria, the activity at 30 µM turned out to be 90.7%. For the same compound, in data set [2], the “Inotropic Effect” value worked out at 63.5%.
On to `N#Cc1ccc(C(O)CN2CC=C(C3=NNC(=O)CN3)CC2)cc1` (stereo not shown) [Compound 64, 3-[1-[2-(4-Cyanophenyl)-2-hydroxyethyl]-1,2,5,6-tetrahydropyrid-4-yl]-4,5-dihydro-1,2,4-triazin-6(1H)-one], for which the activity at 30 µM in the data set on right atria stood at 93%. The “Inotropic Effect” value in data set [2] is reported as 23.8%.
Take `Cc1ccc(C(O)CN2CC=C(C3=NNC(=O)CS3)CC2)c(C)c1` (stereo not shown) [hydrochloride of compound 25, Hydrochloride of 2-[1-[2-hydroxy-2-(2,4-dimethylphenyl)ethyl]-1,2,5,6-tetrahydropyrid-4-yl]-4H,6H-1,3,4-thiadiazin-5-one]: the 50% lethal dose (LD50) in data set [1] was 135 mg/kg.
With `COc1ccc(C(CN2CC=C(C3=NNC(=O)CS3)CC2)OC)cc1` (stereo not shown) [Compound 70, 2-[1-[2-Methoxy-2-(4-methoxyphenyl)ethyl]-1,2,5,6-tetrahydropyrid-4-y1]-4H,6H-1,3,4-thiadiazin-5-one], in the data set with right atria, the activity at 30 µM was found to be 99.2%. Moreover, in data set [2], the “Inotropic Effect” value came to 56.0%.
As for `Cc1cccc(C(O)CN2CC=C(C3=NNC(=O)CS3)CC2)c1` (stereo not shown) [hydrochloride of compound 20, Hydrochloride of 2-[1-[2-hydroxy-2-(3-methylphenyl)ethyl]-1,2,5,6-tetrahydropyrid-4-yl]-4H,6H-1,3,4-thiadiazin-5-one], the LD50 in data set [1] came to 173 mg/kg.
As to `COc1cccc(C(O)CN2CC=C(C3=NNC(=O)CS3)CC2)c1` (stereo not shown) [Compound 7, 2-[1-[2-Hydroxy-2-(3-methoxyphenyl)ethyl]-1,2,5,6-tetrahydropyrid-4-yl]-4H,6H-1,3,4-thiadiazin-5-one], the activity at 30 µM in the data set with right atria stood at 95.2%. Further, in data set [2], the “Inotropic Effect” value is 54.0%.
Take `COc1ccc(C(O)CN2CC=C(C3=NNC(=O)SC3)CC2)cc1` (stereo not shown) [Compound 39, 5-[1-[2-Hydroxy-2-(4-methoxyphenyl)ethyl]-1,2,5,6tetra-hydropyrid-4-yl]-3H,6H-1,3,4-thiadiazin-2-one]: the activity at 30 µM in the data set with right atria amounted to 75.7%. The “Inotropic Effect” value in data set [2] is 28.3%.
On the same counts, the results for `O=C1NN=C(C2=CCN(CC(O)c3ccc(Cl)cc3)CC2)CS1` (stereo not shown) [Compound 42, 5-[1-[2-(4-Chlorophenyl)-2-hydroxyethyl]-1,2,5,6-tetrahydropyrid-4-yl]-3H,6H-1,3,4-thiadiazin-2-one] are 85.9% and 71.0%.
On the same counts, the results for `O=C1NN=C(C2=CCN(CC(O)c3ccc4ccccc4c3)CC2)CS1` (stereo not shown) [Compound 69, 5-[1-[2-Hydroxy-2-(2-naphthyl)ethyl]-1,2,5,6-tetrahydropyrid-4-yl]-3H, 6H-1,3,4-thiadiazin-2-one] are 79.7% and 28.6%.
For `O=C1CSC(C2=CCN(CC(O)c3ccc4c(c3)OCO4)CC2)=NN1` (stereo not shown) [Compound 32, 2-[1-[2-Hydroxy-2-[3,4-(methylenedioxy)phenyl]ethyl]-1,2,5,6-tetrahydropyrid-4-yl]-4H,6H-1,3,4-thiadiazin-5-one], the activity at 30 µM with right atria worked out at 93.1%. Also, the “Inotropic Effect” value in data set [2] was 63.9%.
Consider `O=C1NN=C(C2=CCN(CC(O)c3ccc([N+](=O)[O-])cc3)CC2)CS1` (stereo not shown) [Compound 45, 5-[1-[2-Hydroxy-2-(4-nitrophenyl)ethyl]-1,2,5,6-tetrahydropyrid-4-yl]-3H,6H-1,3,4-thiadiazin-2-one], for which, in the data set with right atria, the activity at 30 µM is 79.1%. In addition, the “Inotropic Effect” value in data set [2] is given as 99.5%.
Consider `COc1ccc(C(O)CN2CC=C(C3=NNC(=O)CC3)CC2)cc1` (stereo not shown) [Compound 49, 4,5-Dihydro-6-[1-[2-hydroxy-2-(4-methoxyphenyl)ethyl]-1,2,5,6-tetrahydropyrid-4-yl]pyridazin-3(2H)-one], for which the activity at 30 µM in the data set with right atria is 87.6%. The “Inotropic Effect” value in data set [2] is listed as 27.7%.
For `Cc1ccc(C(O)CN2CC=C(C3=NNC(=O)C(C)S3)CC2)cc1` (stereo not shown) [Compound 22, 2-[1-[2-Hydroxy-2-(4-methylphenyl)ethyl]-1,2,5,6-tetrahydropyrid-4-yl]-6-methyl-4H,6H-1,3,4-thiadiazin-5-one], in the data set on right atria, the activity at 30 µM came out at 76.7%. Also, the “Inotropic Effect” value in data set [2] is given as 30.4%.

These data come from patent publication US5574033A, “Heterocyclic compound and cardiotonic agent containing the same as effective component” (Zenyaku Kogyo Kabushiki Kaisha, priority 1991, dated 1996).
